The source of these data is patent US8198273B2, “Compounds and methods for kinase modulation, and indications therefor” (Plexxikon Inc., priority 2009, dated 2012).

For data set [1], the system named is SW620 colon adenocarcinoma cells (wild-type B-RAF). In words: SW620 cell growth inhibition (ATPlite). It counts as cell-based. Particulars: Homo sapiens, SW-620, 72 h; SW620, 3 days incubation. In outline:
(§1)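 Cells plated overnight, then exposed 3 days at 37° C to 8-point 1:3 compound dilutions topping at 10 μM final. Viability read as ATPlite luminescence, proportional to cell number; IC50 from luminescence versus concentration.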
A general note: In ATP-based viability assays light output follows the ATP content of the culture.

Data set [2] deals with COLO205 colon adenocarcinoma cells (B-Raf V600E). In words: COLO205 cell growth inhibition (ATPlite). The data set is classed as cell-based. Particulars: Homo sapiens, COLO 205, 72 h; COLO205, 3 days incubation. In outline: as §1
Data set [3] has as its system SKMEL2 melanoma cells (Ras mutation). Put plainly: SKMEL2 cell growth inhibition (ATPlite). Particulars: Homo sapiens, SK-MEL-2, 72 h; SKMEL2, 3 days incubation. The data set is classed as cell-based. In outline: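 SKMEL2 cells seeded at 2,000 per well overnight, then exposed to an 8-point 1:3 compound titration (top 10 μM final) for 3 days at 37 °C. ATPlite luminescence used as a measure of cell number to derive IC50.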

Data set [4] has as its target T1, CYP1A2 (Homo sapiens, UniProt P05177).
T1 sequence (P05177 1-516): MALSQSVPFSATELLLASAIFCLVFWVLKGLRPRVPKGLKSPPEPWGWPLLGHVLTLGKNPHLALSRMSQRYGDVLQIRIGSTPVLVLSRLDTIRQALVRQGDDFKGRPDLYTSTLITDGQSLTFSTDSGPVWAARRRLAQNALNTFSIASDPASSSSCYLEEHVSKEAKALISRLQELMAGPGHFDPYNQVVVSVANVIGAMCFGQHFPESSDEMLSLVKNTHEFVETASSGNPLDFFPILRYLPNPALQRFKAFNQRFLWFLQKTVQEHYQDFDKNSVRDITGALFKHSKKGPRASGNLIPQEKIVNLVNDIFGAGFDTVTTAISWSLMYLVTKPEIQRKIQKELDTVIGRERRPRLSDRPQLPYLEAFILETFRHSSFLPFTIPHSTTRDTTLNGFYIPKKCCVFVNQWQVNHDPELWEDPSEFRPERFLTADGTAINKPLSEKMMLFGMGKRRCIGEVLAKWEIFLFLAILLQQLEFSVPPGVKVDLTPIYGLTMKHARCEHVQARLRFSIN
Put plainly: CYP1A2 inhibition (fluorescent substrate). Conditions: CYP1A2, CEC substrate; read-out: Cyp IC50 1A2. It counts as in vitro ADME. In outline:
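Human CYP activity was followed by the fluorescence of the metabolized product of a known substrate, which falls as metabolism is inhibited. Compounds from 100 mM DMSO stocks were serially diluted 1:1 over 10 points in co-factor mix and preincubated 10 min at 37 °C. IC50 was fitted from signal versus concentration.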

With `CCCS(=O)(=O)Nc1ccc(F)c(C(=O)c2c[nH]c3ncc(-c4ccc(Cl)nc4)cc23)c1F` [P-2154, Propane-1-sulfonic acid {3-[5-(6-chloro-pyridin-3-yl)-1H-pyrrolo[2,3-b]pyridine-3-carbonyl]-2,4-difluoro-phenyl}-amide], the IC50 was greater than 10 µM in data set [1], less than 1 µM in data set [2], greater than 10 µM in data set [3] and greater than 10 µM in data set [4].

As to `CCCS(=O)(=O)Nc1ccc(F)c(C(=O)c2c[nH]c3ncc(-c4ccc(F)nc4)cc23)c1F` [P-2155, Propane-1-sulfonic acid {2,4-difluoro-3-[5-(6-fluoro-pyridin-3-yl)-1H-pyrrolo[2,3-b]pyridine-3-carbonyl]-phenyl}-amide], the IC50 is greater than 10 µM in data set [1], less than 1 µM in data set [2], less than 20 µM in data set [3] and greater than 10 µM in data set [4].

Regarding `CCCS(=O)(=O)Nc1ccc(F)c(C(=O)c2c[nH]c3ncc(-c4cncnc4)cc23)c1F` [P-2162, Propane-1-sulfonic acid [2,4-difluoro-3-(5-pyrimidin-5-yl-1H-pyrrolo[2,3-b]pyridine-3-carbonyl)-phenyl]-amide], the IC50 was greater than 10 µM in data set [1], less than 1 µM in data set [2], less than 10 µM in data set [3] and less than 5 µM in data set [4].

On to `CCCS(=O)(=O)Nc1ccc(F)c(C(=O)c2c[nH]c3ncc(-c4ccc(NS(C)(=O)=O)cc4)cc23)c1F` [P-2165, Propane-1-sulfonic acid {2,4-difluoro-3-[5-(4-methanesulfonylamino-phenyl)-1H-pyrrolo[2,3-b]pyridine-3-carbonyl]-phenyl}-amide], for which the IC50 in data set [1] was less than 10 µM; in data set [2], less than 1 µM; in data set [3], less than 10 µM; in data set [4] it was greater than 10 µM.

In the case of `CCCS(=O)(=O)Nc1ccc(F)c(C(=O)c2c[nH]c3ncc(-c4ccc(S(=O)(=O)N5CCOCC5)cc4)cc23)c1F` [P-2166, Propane-1-sulfonic acid (2,4-difluoro-3-{5-[4-(morpholine-4-sulfonyl)-phenyl]-1H-pyrrolo[2,3-b]pyridine-3-carbonyl}-phenyl)-amide], the IC50 in data set [1] was less than 10 µM; in data set [2], less than 0.1 µM; in data set [3], less than 5 µM; in data set [4], greater than 10 µM.

As for `CCCS(=O)(=O)Nc1ccc(F)c(C(=O)c2c[nH]c3ncc(-c4ccc(S(=O)(=O)NC)cc4)cc23)c1F` [P-2167, 4-{3-[2,6-Difluoro-3-(propane-1-sulfonylamino)-benzoyl]-1H-pyrrolo[2,3-b]pyridin-5-yl}-N-methyl-benzenesulfonamide], the IC50 in data set [1] is less than 10 µM; in data set [2], less than 0.1 µM; in data set [3], less than 5 µM; in data set [4] it was greater than 10 µM.

On to `CCCS(=O)(=O)Nc1ccc(F)c(C(=O)c2c[nH]c3ncc(-c4ccc(S(=O)(=O)NC5CC5)cc4)cc23)c1F` [P-2168, N-Cyclopropyl-4-{3-[2,6-difluoro-3-(propane-1-sulfonylamino)-benzoyl]-1H-pyrrolo[2,3-b]pyridin-5-yl}-benzenesulfonamide], for which the IC50 in data set [1] was less than 5 µM; in data set [2], less than 0.1 µM; in data set [3] it was less than 5 µM; in data set [4], greater than 10 µM.

With `CCCS(=O)(=O)Nc1ccc(F)c(C(=O)c2c[nH]c3ncc(-c4cn[nH]c4)cc23)c1F` [P-2174, Propane-1-sulfonic acid {2,4-difluoro-3-[5-(1H-pyrazol-4-yl)-1H-pyrrolo[2,3-b]pyridine-3-carbonyl]-phenyl}-amide], the 50% inhibitory concentration (IC50) in data set [1] was greater than 10 µM; in data set [2] it was less than 1 µM; in data set [3], less than 10 µM; in data set [4], greater than 10 µM.

Take `CCCS(=O)(=O)Nc1ccc(F)c(C(=O)c2c[nH]c3ncc(-c4cnn(CCN5CCOCC5)c4)cc23)c1F` [P-2177, Propane-1-sulfonic acid (2,4-difluoro-3-{5-[1-(2-morpholin-4-yl-ethyl)-1H-pyrazol-4-yl]-1H-pyrrolo[2,3-b]pyridine-3-carbonyl}-phenyl)-amide]: the IC50 is less than 20 µM in data set [1], less than 0.1 µM in data set [2], less than 10 µM in data set [3] and greater than 10 µM in data set [4].

In the case of `CCCS(=O)(=O)Nc1ccc(F)c(C(=O)c2c[nH]c3ncc(-c4ccc(OCCCN(C)C)nc4)cc23)c1F` [P-2178, Propane-1-sulfonic acid (3-{5-[6-(3-dimethylamino-propoxy)-pyridin-3-yl]-1H-pyrrolo[2,3-b]pyridine-3-carbonyl}-2,4-difluoro-phenyl)-amide], the IC50 in data set [1] is greater than 10 µM; in data set [2], less than 0.1 µM; in data set [3], less than 5 µM; in data set [4] it was greater than 10 µM.

In the case of `CCCS(=O)(=O)Nc1ccc(F)c(C(=O)c2c[nH]c3ncc(-c4ccc(S(C)(=O)=O)cc4)cc23)c1F` [P-2183, Propane-1-sulfonic acid {2,4-difluoro-3-[5-(4-methanesulfonyl-phenyl)-1H-pyrrolo[2,3-b]pyridine-3-carbonyl]-phenyl}-amide], the IC50 is less than 20 µM in data set [1], less than 0.1 µM in data set [2], greater than 10 µM in data set [3] and greater than 10 µM in data set [4].

Consider `CCCS(=O)(=O)Nc1ccc(F)c(C(=O)c2c[nH]c3ncc(-c4ccc(S(=O)(=O)N(C)C)cc4)cc23)c1F` [P-2185, 4-{3-[2,6-Difluoro-3-(propane-1-sulfonylamino)-benzoyl]-1H-pyrrolo[2,3-b]pyridin-5-yl}-N,N-dimethyl-benzenesulfonamide], for which the IC50 in data set [1] was greater than 10 µM; in data set [2], less than 0.1 µM; in data set [3], greater than 10 µM; in data set [4] it was greater than 10 µM.

In the case of `CCCS(=O)(=O)Nc1ccc(F)c(C(=O)c2c[nH]c3ncc(-c4cnc(SC)nc4)cc23)c1F` [P-2189, Propane-1-sulfonic acid {2,4-difluoro-3-[5-(2-methylsulfanyl-pyrimidin-5-yl)-1H-pyrrolo[2,3-b]pyridine-3-carbonyl]-phenyl}-amide], the IC50 is greater than 10 µM in data set [1], less than 1 µM in data set [2], less than 10 µM in data set [3] and greater than 10 µM in data set [4].

On to `CCCS(=O)(=O)Nc1ccc(F)c(C(=O)c2c[nH]c3ncc(-c4ccc(NC(C)=O)nc4)cc23)c1F` [P-2193, N-(5-{3-[2,6-Difluoro-3-(propane-1-sulfonylamino)-benzoyl]-1H-pyrrolo[2,3-b]pyridin-5-yl}-pyridin-2-yl)-acetamide], for which the IC50 in data set [1] is greater than 10 µM; in data set [2], less than 1 µM; in data set [3], greater than 10 µM; in data set [4], greater than 10 µM.

Regarding `CCCS(=O)(=O)Nc1ccc(F)c(C(=O)c2c[nH]c3ncc(-c4cnc(N(C)C)nc4)cc23)c1F` [P-2196, Propane-1-sulfonic acid {3-[5-(2-dimethylamino-pyrimidin-5-yl)-1H-pyrrolo[2,3-b]pyridine-3-carbonyl]-2,4-difluoro-phenyl}-amide], the half-maximal inhibitory concentration (IC50) in data set [1] is greater than 10 µM; in data set [2], less than 1 µM; in data set [3], greater than 10 µM; in data set [4], greater than 10 µM.

Consider `CCCS(=O)(=O)Nc1ccc(F)c(C(=O)c2c[nH]c3ncc(-c4cnc(C)nc4)cc23)c1F` [P-2211, Propane-1-sulfonic acid {2,4-difluoro-3-[5-(2-methyl-pyrimidin-5-yl)-1H-pyrrolo[2,3-b]pyridine-3-carbonyl]-phenyl}-amide], for which the IC50 in data set [1] was greater than 10 µM; in data set [2] it was less than 1 µM; in data set [3] it was greater than 10 µM; in data set [4], greater than 10 µM.

With `CCCS(=O)(=O)Nc1ccc(F)c(C(=O)c2c[nH]c3ncc(-c4ccc(C)nc4)cc23)c1F` [P-2213, Propane-1-sulfonic acid {2,4-difluoro-3-[5-(6-methyl-pyridin-3-yl)-1H-pyrrolo[2,3-b]pyridine-3-carbonyl]-phenyl}-amide], the IC50 in data set [1] is less than 20 µM; in data set [2], less than 1 µM; in data set [3], greater than 10 µM; in data set [4], greater than 10 µM.

As to `CCCS(=O)(=O)Nc1ccc(F)c(C(=O)c2c[nH]c3ncc(-c4ccc(N)nc4)cc23)c1F` [P-2214, Propane-1-sulfonic acid {3-[5-(6-amino-pyridin-3-yl)-1H-pyrrolo[2,3-b]pyridine-3-carbonyl]-2,4-difluoro-phenyl}-amide], the IC50 in data set [1] is less than 20 µM; in data set [2], less than 1 µM; in data set [3] it was greater than 10 µM; in data set [4], greater than 10 µM.

One may read the IC50 as the point on the concentration scale where inhibition reaches its midpoint.
